According to US20240158446A1, “CYCLIC COMPOUND HAVING SELECTIVE INHIBITORY ACTION ON KRAS OVER HRAS AND NRAS” (CHUGAI SEIYAKU KABUSHIKI KAISHA, priority 2021, published 2024):
Where a SMILES comes first, the peptide text is derived from it. Bridges are numbered along the chain shown (N, C = ends). [ ]: non-standard residue; d: D form. The star is where a group is joined. hPhe(3-Cl-4-CF3) = N[C@@H](CCc1ccc(C(F)(F)F)c(Cl)c1)C(=O)O; NPrPhe(4-CF3) = CCCN[C@@H](Cc1ccc(C(F)(F)F)cc1)C(=O)O; NEtPhe(4-CF3) = CCN[C@@H](Cc1ccc(C(F)(F)F)cc1)C(=O)O; NMeGly(cPent) = CN[C@H](C(=O)O)C1CCCC1; Pro(4,4-F2) = O=C(O)[C@@H]1CC(F)(F)CN1; NMeD = CN[C@@H](CC(=O)O)C(=O)O; NMeL = CN[C@@H](CC(C)C)C(=O)O; Morpholide = C1CN(*)CCO1; Aze = O=C(O)[C@@H]1CCN1; Ac4c = NC1(C(=O)O)CCC1; Aib = CC(C)(N)C(=O)O; Sar = CNCC(=O)O

Tests used:
[1] = test system: human lung cancer strain NCI-H441;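 note: cell proliferation inhibition after four days measured by CellTiter-Glo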
[2] = target: GDP-bound HRAS wild-type protein (Homo sapiens, UniProt P01112); assay: Binding to HRAS by surface plasmon resonance (SPR), Single Cycle Kinetics; conditions: SPR, GDP-bound HRAS wild-type protein vs GDP-bound KRAS wild-type protein
[3] = target: GDP-bound NRAS wild-type protein (Homo sapiens, UniProt P01111); assay: Binding to NRAS by surface plasmon resonance (SPR), Single Cycle Kinetics; conditions: SPR, GDP-bound NRAS wild-type protein vs GDP-bound KRAS wild-type protein
Chain of GDP-bound NRAS wild-type protein (P01111 whole entry): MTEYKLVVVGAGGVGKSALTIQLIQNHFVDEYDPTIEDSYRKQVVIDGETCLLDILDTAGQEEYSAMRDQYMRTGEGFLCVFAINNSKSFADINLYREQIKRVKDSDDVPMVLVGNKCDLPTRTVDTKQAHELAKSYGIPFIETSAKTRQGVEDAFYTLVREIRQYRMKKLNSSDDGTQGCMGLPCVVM

Chain of GDP-bound HRAS wild-type protein (P01112 whole entry): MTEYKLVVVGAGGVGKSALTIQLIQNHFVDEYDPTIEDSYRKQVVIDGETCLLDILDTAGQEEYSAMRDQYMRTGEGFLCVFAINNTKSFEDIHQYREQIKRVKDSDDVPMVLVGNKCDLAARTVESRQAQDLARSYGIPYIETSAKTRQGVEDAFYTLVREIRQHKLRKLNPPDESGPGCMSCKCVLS

Row | SMILES | IC50 [1] | HRAS/KRAS (ratio of KD value for HRAS to KD value for KRAS) [2] | NRAS/KRAS (ratio of KD value for NRAS to KD value for KRAS) [3] | HRAS/KRAS (ratio of KD value with respect to HRAS to KD value with respect to KRAS) [2] | NRAS/KRAS (ratio of KD value with respect to NRAS to KD value with respect to KRAS) [3]
1 | CCCN1C(=O)CN(C)C(=O)[C@@H]2CCN2C(=O)[C@H]([C@@H](C)CC)NC(=O)[C@H](CC(C)C)N(C)C(=O)C[C@@H](C(=O)N2CCOCC2)NC(=O)[C@H](C2CCCC2)N(C)C(=O)C2(CCC2)NC(=O)[C@@H]2CC(F)(F)CN2C(=O)[C@H](CCc2ccc(C(F)(F)F)c(Cl)c2)NC(=O)CN(C)C(=O)[C@@H]1Cc1ccc(C(F)(F)F)cc1 [PP0340] ([NMeL]I[Aze][Sar][NPrPhe(4-CF3)][Sar][hPhe(3-Cl-4-CF3)][Pro(4,4-F2)][Ac4c][NMeGly(cPent)]D-Morpholide; lactam N-11) | 177 nM | B (a compound having 3 or more and less than 10 is denoted as B) | B (a compound having 3 or more and less than 10 is denoted as B) | – | –
2 | CCCN1C(=O)CN(C)C(=O)CN(C)C(=O)[C@H]([C@@H](C)CC)NC(=O)[C@@H]2COCCCC[C@@](C)(NC(=O)[C@@H]3C[C@@H](OCC)CN3C(=O)[C@H](CCc3cc(F)c(C(F)(F)F)c(F)c3)NC(=O)CN(C)C(=O)[C@@H]1Cc1ccc(C(F)(F)F)cc1)C(=O)N(C)[C@@H](C1CCCC1)C(=O)N(C)[C@H](C(=O)N1CCOCC1)CC(=O)N2C [PP0899] | 923 nM | B (a compound having 3 or more and less than 10 is denoted as B) | A (a compound having 10 or more and less than 20 is denoted as A) | – | –
3 | CC[C@H](C)[C@@H]1NC(=O)[C@H](CC(C)C)N(C)C(=O)C[C@@H](C(=O)N(C)C)N(C)C(=O)[C@H](C2CCCC2)N(C)C(=O)C2(CCCC2)NC(=O)[C@@H]2CCCN2C(=O)[C@H](CCc2ccc(C(F)(F)F)c(Cl)c2)NC(=O)CN(C)C(=O)[C@H](Cc2ccc(C)cc2)N2CC/C=C(/C)C[C@@H](C2=O)N(C)C(=O)CN(C)C1=O [PP0616] | 73.8 nM | – | – | B (a compound having 3 or more and less than 10 is denoted as B) | B (a compound having 3 or more and less than 10 is denoted as B)
4 | CCO[C@@H]1C[C@H]2C(=O)NC3(CCC3)C(=O)N(C)[C@@H](C3CCCC3)C(=O)N(C)[C@H](C(=O)N(C)C)CC(=O)N(CC)[C@@H](CC(C)C)C(=O)N[C@@H]([C@@H](C)CC)C(=O)N(C)CC(=O)N(C)[C@H]3CC(C)=CCN(C3=O)[C@@H](Cc3ccc(C(F)(F)F)cc3)C(=O)N(C)CC(=O)N[C@@H](CCc3cc(F)c(C(F)(F)F)c(F)c3)C(=O)N2C1 [PP1037] | 296 nM | C (A compound having a KD ratio of 0.1 or more and less than 3 is denoted as C) | C (A compound having a KD ratio of 0.1 or more and less than 3 is denoted as C) | – | –
5 | CCC[C@H]1C(=O)N[C@@H]([C@@H](C)CC)C(=O)N(C)CC(=O)N(C)[C@H]2C/C=C\CCN(C2=O)[C@@H](Cc2ccc(C)cc2)C(=O)N(C)CC(=O)N[C@@H](CCc2ccc(C(F)(F)F)c(OC)c2)C(=O)N2CC3(CC3)C[C@H]2C(=O)NC2(CC(C)(C)C2)C(=O)N(C)[C@@H](CC(C)C)C(=O)N(C)[C@H](C(=O)N(C)C)CC(=O)N1C [PP3013] | 29.7 nM | B (a compound having 3 or more and less than 10 is denoted as B) | AA (a compound having 20 or more is denoted as AA) | – | –
6 | CC[C@H](C)[C@@H]1NC(=O)[C@H](CC(C)C)N(C)C(=O)C[C@@H](C(=O)N2CCOCC2)N(C)C(=O)[C@H](C2CCCC2)N(C)C(=O)C(C)(C)NC(=O)[C@@H]2CCCN2C(=O)[C@H](CCc2ccc(C(F)(F)F)c(Cl)c2)NC(=O)CN(C)C(=O)[C@H](Cc2ccc(C(F)(F)F)cc2)N(CC)C(=O)CN(C)C(=O)CN(C)C1=O [PP0235] ([NMeL]I[Sar][Sar][NEtPhe(4-CF3)][Sar][hPhe(3-Cl-4-CF3)]P[Aib][NMeGly(cPent)][NMeD]-Morpholide; lactam N-11) | 4.5 nM | C (A compound having a KD ratio of 0.1 or more and less than 3 is denoted as C) | B (a compound having 3 or more and less than 10 is denoted as B) | – | –
